The source of these data is patent publication US20100216791A1, “PYRIDINYLQUINAZOLINAMINE DERIVATIVES AND THEIR USE AS B-RAF INHIBITORS” (ASTRAZENECA, priority 2006, published 2010).

Each structure is given as a SMILES string.

This experiment deals with Mutant B-Raf (V600E) enzyme (MT B-Raf) (Homo sapiens, UniProt P15056, V600E). The experiment can be described thus: biochemical. To be noted: B-Raf Alpha screen comparable to the described assay; phosphorylation of biotinylated HIS-MEK-AVI; results may be an average of two or more results.
Chain of Mutant B-Raf (V600E) enzyme (MT B-Raf) (P15056 whole entry V600E): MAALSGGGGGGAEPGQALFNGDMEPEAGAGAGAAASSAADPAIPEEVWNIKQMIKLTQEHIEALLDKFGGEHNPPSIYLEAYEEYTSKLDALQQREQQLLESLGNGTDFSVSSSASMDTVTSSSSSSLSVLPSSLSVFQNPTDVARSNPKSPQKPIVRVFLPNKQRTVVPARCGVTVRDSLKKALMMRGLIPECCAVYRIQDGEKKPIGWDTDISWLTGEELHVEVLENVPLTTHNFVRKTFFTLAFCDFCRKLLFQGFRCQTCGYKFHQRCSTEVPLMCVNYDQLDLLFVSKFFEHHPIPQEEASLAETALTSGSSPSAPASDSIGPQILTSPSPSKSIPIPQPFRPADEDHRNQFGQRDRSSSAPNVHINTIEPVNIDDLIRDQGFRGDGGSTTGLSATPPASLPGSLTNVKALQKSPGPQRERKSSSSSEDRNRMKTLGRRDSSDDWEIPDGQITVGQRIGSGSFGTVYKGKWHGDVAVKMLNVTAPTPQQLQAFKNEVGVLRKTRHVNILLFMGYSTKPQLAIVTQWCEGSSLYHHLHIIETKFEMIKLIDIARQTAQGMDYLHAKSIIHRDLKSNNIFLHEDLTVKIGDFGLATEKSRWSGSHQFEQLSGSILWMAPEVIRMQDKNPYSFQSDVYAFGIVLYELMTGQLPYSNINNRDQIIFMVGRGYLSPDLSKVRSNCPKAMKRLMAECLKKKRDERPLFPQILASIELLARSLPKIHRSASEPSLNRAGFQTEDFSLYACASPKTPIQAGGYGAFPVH

The term IC50 denotes the concentration that inhibits the measured activity by half. Consider `Fc1cccc(Nc2ncc3cc(-c4ccncc4)ccc3n2)c1` [Example 98, N-(3-Fluorophenyl)-6-pyridin-4-ylquinazolin-2-amine], for which the IC50 came to 630 nM.

On to `OCc1ccc(Nc2ncc3cc(-c4ccncc4)ccc3n2)cc1` [Example 78, {4-[(6-Pyridin-4-ylquinazolin-2-yl)amino]phenyl}methanol], for which the IC50 was found to be 66 nM.

For `CCN(CCO)c1ccc(Nc2ncc3cc(-c4ccncc4)ccc3n2)cc1` [Example 92, 2-(Ethyl{4-[(6-pyridin-4-ylquinazolin-2-yl)amino]phenyl}amino)ethanol], 92 nM corresponded to half-maximal inhibition (IC50).

`c1cc(-c2ccc3nc(Nc4ccc(OCCN5CCOCC5)cc4)ncc3c2)ccn1` [Example 43, N-[4-(2-Morpholin-4-ylethoxy)phenyl]-6-pyridin-4-ylquinazolin-2-amine] had a half-inhibitory concentration (IC50) of 160 nM.

`CNCCCNC(=O)c1ccc(Nc2ncc3cc(-c4ccncc4)ccc3n2)cc1` [Example 59, N-[3-(Methylamino)propyl]-4-[(6-pyridin-4-ylquinazolin-2-yl)amino]benzamide] had an IC50 of 69 nM.

Consider `CC(c1ccc(Nc2ncc3cc(-c4ccncc4)ccc3n2)cc1)N1CCCC1` (centres unmarked) [Example 131, 6-(Pyridin-4-yl)-N-(4-(1-(pyrrolidin-1-yl)ethyl)phenyl)quinazolin-2-amine], for which the IC50 turned out to be 19 nM.

Compound `CC(C)Oc1cccc(Nc2ncc3cc(-c4ccncc4)ccc3n2)c1` [Example 86, N-(3-Isopropoxyphenyl)-6-pyridin-4-ylquinazolin-2-amine] came in with an IC50 of 1500 nM.

In turn, `O=C(NCCCn1ccnc1)c1ccc(Nc2ncc3cc(-c4ccncc4)ccc3n2)cc1` [Example 35, N-[3-(1H-Imidazol-1-yl)propyl]-4-[(6-pyridin-4-ylquinazolin-2-yl)amino]benzamide] showed an IC50 of 110 nM.

In turn, `CN1CCCC1CCNCc1ccc(Nc2ncc3cc(-c4ccncc4)ccc3n2)cc1` (centres unmarked) [Example 72, N-[4-({[2-(1-Methylpyrrolidin-2-yl)ethyl]amino}methyl)phenyl]-6-pyridin-4-ylquinazolin-2-amine] had an IC50 of 260 nM.

In turn, `CN(CCO)Cc1ccc(Nc2ncc3cc(-c4ccncc4)ccc3n2)cc1` [Example 75, 2-(Methyl{4-[(6-pyridin-4-ylquinazolin-2-yl)amino]benzyl}amino)ethanol] came in with an IC50 of 24 nM.

In turn, `O=C(NCCN1CCCCC1)c1ccc(Nc2ncc3cc(-c4ccncc4)ccc3n2)cc1` [Example 27, N-(2-Piperidin-1-ylethyl)-4-[(6-pyridin-4-ylquinazolin-2-yl)amino]benzamide] displayed an IC50 of 87 nM.

For `CN1CCCN(C(=O)c2ccc(Nc3ncc4cc(-c5ccncc5)ccc4n3)cc2)CC1` [Example 116, N-{4-[(4-Methyl-1,4-diazepan-1-yl)carbonyl]phenyl}-6-pyridin-4-ylquinazolin-2-amine], the IC50 was determined as 63 nM.

On to `CCCNC(C)c1ccc(Nc2ncc3cc(-c4ccncc4)ccc3n2)cc1` (single isomer, unassigned) [Example 142], for which the IC50 is 12 nM.

`NCCCNC(=O)c1ccc(Nc2ncc3cc(-c4ccncc4)ccc3n2)cc1` [Example 62, N-(3-Aminopropyl)-4-[(6-pyridin-4-ylquinazolin-2-yl)amino]benzamide]: the IC50 turned out to be 93 nM.

In the case of `O=C(NCC1CCCCN1)c1ccc(Nc2ncc3cc(-c4ccncc4)ccc3n2)cc1` (centres unmarked) [Example 68, N-Piperidin-2-ylmethyl-4-[(6-pyridin-4-ylquinazolin-2-yl)amino]benzamide], the concentration for half-maximal inhibition (IC50) came out at 110 nM.

Take `c1cc(-c2ccc3nc(Nc4ccc(N5CCOCC5)nc4)ncc3c2)ccn1` [Example 90, N-(6-Morpholin-4-ylpyridin-3-yl)-6-pyridin-4-ylquinazolin-2-amine]: the half-maximal inhibitory concentration (IC50) was determined as 110 nM.

Take `c1cc(-c2ccc3nc(Nc4ccc5c(c4)OCCO5)ncc3c2)ccn1` [Example 45, N-(2,3-Dihydro-1,4-benzodioxin-6-yl)-6-pyridin-4-ylquinazolin-2-amine]: the IC50 worked out at 300 nM.

`O=C(NCCOCCO)c1ccc(Nc2ncc3cc(-c4ccncc4)ccc3n2)cc1` [Example 8, N-[2-(2-Hydroxyethoxy)ethyl]-4-[(6-pyridin-4-ylquinazolin-2-yl)amino]benzamide] had an IC50 of 120 nM.

With `Fc1ccc(Nc2ncc3cc(-c4ccncc4)ccc3n2)cc1` [Example 105, N-(4-Fluorophenyl)-6-pyridin-4-ylquinazolin-2-amine], half-maximal inhibition (IC50) required 1200 nM.

In the case of `c1cc(-c2ccc3nc(Nc4ccc(N5CCCCC5)cc4)ncc3c2)ccn1` [Example 89, N-(4-Piperidin-1-ylphenyl)-6-pyridin-4-ylquinazolin-2-amine], half-maximal inhibition (IC50) required 280 nM.
